Assay results: paper PMC5147771, “High-Resolution Genetics Identifies the Lipid Transfer Protein Sec14p as Target for Antifungal Ergolines” (PLoS Genetics, 2016)
“Also recorded” adds a separate entry of the source. Like-named read-outs stand apart in the source and are kept apart here.

Columns and labels:
[1] = system: C. neoformans ATCC 90113; assay: C. neoformans growth inhibition (CLSI M27-A3 broth microdilution); format: cell-based; conditions: for MIC: Cryptococcus neoformans, ATCC90113, 72 h
Source text: (§1) Sec14p is reported to be essential for virulence as well as for growth in C. neoformans. The S. cerevisiae and C. neoformans proteins show 53% similarity by pair-wise alignment with higher conservation of the residues in the lipid-binding pocket (S2 Fig). Furthermore, three of the four sites identified to be critical for NGx04 sensitivity, are conserved (S2 Fig). In combination with the current high unmet medical need related to Cryptococcus infections we prioritized testing of NGx04 and 18 related ergoline scaffold analogs against this pathogen. Two clinical isolates of C. neoformans (ATCC 36556 and ATCC 90113) were plated in triplicates on increasing drug concentrations and MIC-2 (50% inhibition) and MIC-0 (no visible fungal growth) concentrations were scored after 72 hrs. (Fig 5).
(§2) C. neoformans strains ATCC 36556, a lung isolate, and ATCC 90113, a cerebrospinal fluid isolate, were purchased from ATCC, Manassas, VA (USA). BPY22 was obtained from.
(§3) Antifungal susceptibility testing was conducted according to the Clinical and Laboratory Standards Institute (CLSI) guidelines for broth microdilution assay M27-A3. Testing was performed in RPMI-1640 (HyClone) with 2.05 mM glutamine, phenol red, without bicarbonate and buffered with 0.165 mol/l 3-(N-morpholino) propanesulfonic acid (MOPS). The medium was adjusted to pH 7.0 and sterilized with a 0.2 μm filter. Two endpoints were recorded: MIC-0 (complete inhibition with no visible fungal growth) and MIC-2 (prominent inhibition corresponding to >50% growth reduction).

[2] = system: C. neoformans ATCC 36556; assay: as above; format: cell-based; conditions: for MIC: Cryptococcus neoformans, ATCC36556, 72 h; for C. neoformans growth inhibition (in words): clinical isolates ATCC 36556 and ATCC 90113, tested dose range
Source text: as §1, §2, §3

[3] = 50% inhibition, 72 h, triplicate values printed singly, read-out: ATCC90113 MIC-2
[4] = no visible fungal growth, 72 h, triplicate values printed singly, read-out: ATCC90113 MIC-0
[5] = no visible fungal growth, 72 h, triplicate values printed singly
[6] = 50% inhibition, 72 h, triplicate values printed singly, read-out: ATCC36556 MIC-2
[7] = no visible fungal growth, 72 h, triplicate values printed singly, read-out: ATCC36556 MIC-0
[8] = 50% inhibition, 72 h, triplicate values printed singly

| SMILES | MIC [1, 3] [µg/mL] | MIC [1, 4] [µg/mL] | ATCC90113 MIC-0 [1, 5] [µg/mL] | MIC [2, 6] [µg/mL] | MIC [2, 7] [µg/mL] | C. neoformans growth inhibition (in words) [2] | ATCC36556 MIC-0 [2, 5] [µg/mL] | ATCC36556 MIC-2 [2, 8] [µg/mL] | ATCC90113 MIC-2 [1, 8] [µg/mL] | MIC ([1]; read-out: ATCC90113 MIC-0) [µg/mL] | MIC ([1]; read-out: ATCC90113 MIC-2) [µg/mL] | MIC ([2]; read-out: ATCC36556 MIC-0) [µg/mL] | MIC ([2]; read-out: ATCC36556 MIC-2) [µg/mL] |
| --- | --- | --- | --- | --- | --- | --- | --- | --- | --- | --- | --- | --- | --- |
| COC(=O)[C@@H]1C[C@@H]2c3cccc4c3[C@H](C[C@H]2N(C)C1)CN4C(=O)OCC(Cl)(Cl)Cl [NGx16] | 13 | 50 | > 50 | 13 | 50 | inhibit C. neoformans growth | > 50 | – | – | – | – | – | – |
| COC(=O)[C@@H]1C[C@@H]2c3cc([N+](=O)[O-])cc4c3[C@H](C[C@H]2N(C)C1)CN4C(=O)OCC(Cl)(Cl)Cl [NGx09] | – | > 50 | – | – | > 50 | inhibit C. neoformans growth | – | – | – | – | – | – | – |
| CN1C[C@H](C(=O)Nc2ccccc2)C[C@@H]2c3c(O)ccc4c3[C@H](C[C@H]21)CN4C(=O)OC(C)(C)C [NGx07] | 13 | > 50 | – | 6.3 | > 50 | inhibit C. neoformans growth; also recorded: scored anti-fungal activity | – | – | – | – | – | – | – |
| COC(=O)[C@@H]1C[C@@H]2c3cc([N+](=O)[O-])cc4c3[C@@H](CN4)C[C@H]2N(C)C1 [NGx14] | > 50 | > 50 | – | 50 | > 50 | – | – | – | – | – | – | – | – |
| COC(=O)C1CC2c3cccc4c3C(CC2N(C)C1)CN4C=O (centres unmarked) [NGx17] | > 50 | > 50 | – | 50 | > 50 | – | – | > 50 | – | – | – | – | – |
| COC(=O)[C@@H]1C[C@@H]2c3cc(N)cc4c3[C@H](C[C@H]2N(C)C1)CN4C(C)=O [NGx10] | > 50 | > 50 | – | 25 | > 50 | – | – | – | – | – | – | – | – |
| C[C@@H]1[C@H](O)[C@@H](C)/C=C/C=C/C=C/C=C/C=C/C=C/C=C/[C@H](O[C@@H]2O[C@H](C)[C@@H](O)[C@H](N)[C@@H]2O)C[C@@H]2O[C@](O)(C[C@@H](O)C[C@@H](O)[C@H](O)CC[C@@H](O)C[C@@H](O)CC(=O)O[C@H]1C)C[C@H](O)[C@H]2C(=O)O [Amphotericin B, reference compound] | 0.8 | 1.6 | – | 0.2 | 0.2 | – | 0.4 | 0.1 | – | – | – | – | – |
| CN1C[C@H](C(=O)Nc2cccc(C(F)(F)F)c2)C[C@@H]2c3cccc4c3[C@H](C[C@H]21)CN4C(=O)OC(C)(C)C [NGx03] | > 50 | > 50 | – | 3.13 | 6.25 | inhibit C. neoformans growth; also recorded: scored anti-fungal activity | 6.3 | 3.1 | – | – | – | – | – |
| COC(=O)[C@@H]1C[C@@H]2c3c([N+](=O)[O-])ccc4c3[C@H](C[C@H]2N(C)C1)CN4C(=O)OCC(Cl)(Cl)Cl [NGx19] | 6.25 | > 50 | – | 12.5 | 50 | inhibit C. neoformans growth | 25 | 13 | 6.3 | – | – | – | – |
| COC(=O)[C@@H]1C[C@@H]2c3cc(F)cc4c3[C@H](C[C@H]2N(C)C1)CN4C(C)=O [NGx06] | > 50 | > 50 | – | 50 | > 50 | – | – | – | – | – | – | – | – |
| COC(=O)C1CC2c3cccc4c3C(CC2N(C(C)C)C1)CN4C(=O)OC(C)(C)C (centres unmarked) [NGx15] | > 50 | > 50 | – | > 50 | > 50 | – | – | – | – | – | – | – | – |
| COC(=O)C1CC2c3cc(O)cc4c3C(CC2N(C)C1)CN4C(C)=O (centres unmarked) [NGx12] | > 50 | > 50 | – | 25 | > 50 | – | – | 50 | – | – | – | – | – |
| CN1CC(C(=O)O)CC2c3cccc4c3C(CC21)CN4C(=O)OCc1ccccc1 (centres unmarked) [NGx18] | > 50 | > 50 | – | > 50 | > 50 | – | – | – | – | – | – | – | – |
| COC(=O)[C@@H]1C[C@@H]2c3cc([N+](=O)[O-])cc4c3[C@H](C[C@H]2N(C)C1)CN4C(C)=O [NGx11] | > 50 | > 50 | – | 25 | > 50 | – | – | – | – | – | – | – | – |
| CN1C[C@H](C(=O)O)C[C@@H]2c3cccc4c3[C@H](C[C@H]21)CN4C(=O)OC(C)(C)C [NGx01] | – | – | – | – | – | – | – | – | – | > 50 | > 50 | > 50 | > 50 |
| COC(=O)[C@@H]1C[C@@H]2c3cc(O)cc4c3[C@H](C[C@H]2N(C)C1)CN4C(C)=O [NGx02] | > 50 | > 50 | – | > 50 | > 50 | – | – | – | – | – | – | – | – |
| COC(=O)[C@@H]1C[C@@H]2c3cc(OCc4ccccc4)cc4c3[C@H](C[C@H]2N(C)C1)CN4C(C)=O [NGx08] | > 50 | > 50 | – | 50 | > 50 | – | – | 25 | – | – | – | – | – |
